Laboratory results from patent publication US8912188B2, “Substituted quinoxaline carboxylic acids for the inhibition of PASK” (BioEnergenix, LLC, priority 2011, dated 2014).

Key:
[1] = molecular target: T1, PASK (Invitrogen) (Homo sapiens, UniProt Q96RG2); assay: PAS Kinase FRET Assay; format: biochemical; settings: PAS kinase TR-FRET assay (665 nm/615 nm), 2 hours at 25° C.; read-out: IC50 Kinase Domain
T1 construct: IC50 Kinase Domain; purchased Invitrogen

[2] = In vivo pharmacokinetics in the Sprague Dawley rat; settings: for bioavailability / half-life: blood; for bioavailability: po, 10 mg/kg; for bioavailability / half-life / volume of distribution: summary of Table 3; for t1/2 (half-life): intravenous 3 mg/kg (1 mg/kg for Example 105), oral 10 mg/kg; for Cl (clearance) / Vss (volume of distribution): intravenous via tail vein, 3 mg/kg (1 mg/kg for Example 105); for Tmax (time to maximum blood concentration after an oral dose): oral gavage 10 mg/kg; for F (oral bioavailability): oral gavage 10 mg/kg vs intravenous 3 mg/kg (1 mg/kg for Example 105)
Description: Pharmacokinetics of a PASK Inhibitor
The test compounds were formulated in polyethylene glycol and beta cyclodextrin in water for administration at 1 mg/kg for Example 105, and at 3 mg/kg for Example 14, 15, and 18 for intravenous administration via the tail vein and 10 mg/kg for oral administration by gavage. Blood samples were collected at 0.083, 0.25, 0.5, 1, 2, 4, 6, 8, and 24 hours and the samples were analyzed for test compounds content using LC/MS/MS. The data was submitted to pharmacokinetic analysis using WinNonLin software and the observed and calculated pharmacokinetic parameters are shown in Table 3 for each compound.

[3] = molecular target: T2, PASK (UniProt #Q96RG2; human recombinant N-terminal GST tagged construct, residues 879-1323) (Homo sapiens, UniProt Q96RG2); assay: PASK ATP Radiochemical Assay; format: biochemical; settings: 33P-ATP, Myelin Basic Protein substrate, 120 min at room temperature, read-out: IC50 Kinase Domain
T2 construct: human recombinant N-terminal GST tagged construct, residues 879-1323; GST (N); host or cells: insect cells
T2 sequence (Q96RG2 879-1323, stated change not applied): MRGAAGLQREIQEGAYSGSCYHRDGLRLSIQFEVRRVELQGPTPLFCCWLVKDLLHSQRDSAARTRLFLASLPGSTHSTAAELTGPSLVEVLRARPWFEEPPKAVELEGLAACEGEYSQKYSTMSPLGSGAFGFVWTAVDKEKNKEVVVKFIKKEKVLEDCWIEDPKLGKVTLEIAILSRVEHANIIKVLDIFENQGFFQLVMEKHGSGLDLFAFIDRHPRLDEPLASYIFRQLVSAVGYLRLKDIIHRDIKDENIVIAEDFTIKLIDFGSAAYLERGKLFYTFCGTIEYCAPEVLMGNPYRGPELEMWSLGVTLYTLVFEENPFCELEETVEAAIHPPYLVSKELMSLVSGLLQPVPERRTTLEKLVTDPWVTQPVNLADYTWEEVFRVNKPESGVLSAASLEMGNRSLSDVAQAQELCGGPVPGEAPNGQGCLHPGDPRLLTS
Description: Biochemical Assay for hPASK Activity
PASK ATP Radiochemical Assay
Test compounds in DMSO are then added and the mixture, followed by delivery of ^33P-ATP (specific activity 0.01 μCi/μl final) to initiate the reaction. […] The entire reaction mixture is washed through onto a P81 Phosphocellulose paper and washed three times for 10 minutes in 75 mM phosphoric acid and once in methanol prior to drying and scintillation counting.

T1 sequence (Q96RG2 999-1251 limits assumed): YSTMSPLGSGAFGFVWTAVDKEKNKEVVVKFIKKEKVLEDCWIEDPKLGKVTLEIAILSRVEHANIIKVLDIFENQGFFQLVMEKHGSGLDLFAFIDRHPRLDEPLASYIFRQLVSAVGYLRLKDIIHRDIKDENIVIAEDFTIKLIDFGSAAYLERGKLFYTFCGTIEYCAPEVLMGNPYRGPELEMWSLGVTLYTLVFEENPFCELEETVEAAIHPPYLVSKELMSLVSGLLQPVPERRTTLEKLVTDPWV

SMILES | IC50 [1] [µM] | bioavailability [2] [%] | half-life [2] [min] | t1/2 (half-life) [2] [h] | Cl (clearance) [2] [mL/min/kg] | Vss (volume of distribution) [2] [L/kg] | Tmax (time to maximum blood concentration after an oral dose) [2] [h] | F (oral bioavailability) [2] [%] | volume of distribution [2] | IC50 [3] [µM]
C[C@H]1CCCN1c1nc2cc(C(=O)O)ccc2nc1-c1cc2ccccc2o1 [Example 14, (S)-2-(Benzofuran-2-yl)-3-(2-methylpyrrolidin-1-yl)quinoxaline-6-carboxylic acid] | < 10 | ≥ 63 | ≥ 180 | 3.68 | 1.72 | 0.362 | 6 | 63.4 | low | < 10
CN(c1nc2cc(C(=O)O)ccc2nc1-c1cc2ccccc2o1)C1CC1 [Example 15, 2-(Benzofuran-2-yl)-3-(cyclopropyl(methyl)amino)quinoxaline-6-carboxylic acid] | < 10 | ≥ 63 | ≥ 180 | 3.39 | 1.4 | 0.347 | 6 | 79 | low | < 10
CC(C)N(C)c1nc2cc(C(=O)O)ccc2nc1-c1cc2cc(F)ccc2o1 [Example 18, 2-(5-Fluorobenzofuran-2-yl)-3-(isopropyl(methyl)amino)quinoxaline-6-carboxylic acid] | < 10 | ≥ 63 | ≥ 180 | 7.72 | 1.33 | 0.366 | 8 | 74.8 | low | < 10
C[C@H]1COCCN1c1nc2cc(C(=O)O)ccc2nc1-c1ccc(F)cc1 [Example 105, (S)-2-(4-Fluorophenyl)-3-(3-methylmorpholino)quinoxaline-6-carboxylic acid] | < 10 | > 74 | > 420 | 7.72 | 0.712 | 0.407 | 1 | 74.8 | low | < 10
CN(c1nc2cc(C(=O)O)ccc2nc1-c1ccc(F)cc1)C(C)(C)C [Example 107, 3-(tert-Butyl(methyl)amino)-2-(4-fluorophenyl)quinoxaline-6-carboxylic acid] | < 10 |  |  |  |  |  |  |  |  | < 10
CN(c1nc2cc(C(=O)O)ccc2nc1-c1ccc(F)cc1)C1CCCCC1 [Example 108, 3-(Cyclohexyl(methyl)amino)-2-(4-fluorophenyl)quinoxaline-6-carboxylic acid] | < 10 |  |  |  |  |  |  |  |  | < 10
CCN(c1nc2cc(C(=O)O)ccc2nc1-c1ccc(F)cc1)C(C)C [Example 111, 3-(Ethyl(isopropyl)amino)-2-(4-fluorophenyl)quinoxaline-6-carboxylic acid] | < 10 |  |  |  |  |  |  |  |  | < 10
CCN(c1nc2cc(C(=O)O)ccc2nc1-c1ccc(F)cc1)C1CCCCC1 [Example 112, 3-[Cyclohexyl(ethyl)amino]-2-(4-fluorophenyl)quinoxaline-6-carboxylic acid] | < 10 |  |  |  |  |  |  |  |  | < 10
CCN(CC)c1nc2cc(C(=O)O)ccc2nc1-c1ccc(F)cc1 [Example 113, 3-(Diethylamino)-2-(4-fluorophenyl)quinoxaline-6-carboxylic acid] | < 10 |  |  |  |  |  |  |  |  | < 10
C[C@H]1CCCN1c1nc2cc(C(=O)O)ccc2nc1-c1ccc(F)cc1F [Example 115, (S)-2-(2,4-Difluorophenyl)-3-(2-methylpyrrolidin-1-yl)quinoxaline-6-carboxylic acid] | < 10 |  |  |  |  |  |  |  |  | < 10
C[C@H]1CCCCN1c1nc2cc(C(=O)O)ccc2nc1-c1ccc(F)cc1F [Example 116, (S)-2-(2,4-Difluorophenyl)-3-(2-methylpiperidin-1-yl)quinoxaline-6-carboxylic acid] | < 10 |  |  |  |  |  |  |  |  | < 10
CC(C)N(C)c1nc2cc(C(=O)O)c(O)cc2nc1-c1ccc(F)cc1 [Example 120, 2-(4-Fluorophenyl)-7-hydroxy-3-(isopropyl(methyl)amino)quinoxaline-6-carboxylic acid] | < 10 |  |  |  |  |  |  |  |  | < 10
C[C@@H]1CCCCN1c1nc2cc(C(=O)O)ccc2nc1-c1ccc(F)cc1 [Example 121, (R)-2-(4-Fluorophenyl)-3-(2-methylpiperidin-1-yl)quinoxaline-6-carboxylic acid] | < 10 |  |  |  |  |  |  |  |  | < 10
CN(c1nc2cc(C(=O)O)ccc2nc1-c1ccc(F)cc1)C1CCCC1 [Example 135, 3-(Cyclopentyl(methyl)amino)-2-(4-fluorophenyl)quinoxaline-6-carboxylic acid] | < 10 |  |  |  |  |  |  |  |  | < 10
CCCN(CCC)c1nc2cc(C(=O)O)ccc2nc1-c1ccc(F)cc1 [Example 140, 3-(Dipropylamino)-2-(4-fluorophenyl)quinoxaline-6-carboxylic acid] | < 10 |  |  |  |  |  |  |  |  | < 10
CN(c1nc2cc(C(=O)O)ccc2nc1-c1ccc(F)cc1)C1CCC1 [Example 146, 3-(Cyclobutyl(methyl)amino)-2-(4-fluorophenyl)quinoxaline-6-carboxylic acid] | < 10 |  |  |  |  |  |  |  |  | < 10
CC(C)N(C)c1nc2cc(C(=O)O)ccc2nc1-c1ccc(F)cc1F [Example 147, 2-(2,4-Difluorophenyl)-3-[methyl(propan-2-yl)amino]quinoxaline-6-carboxylic acid] | < 10 |  |  |  |  |  |  |  |  | < 10
C[C@H]1CCCN1c1nc2cc(C(=O)O)ccc2nc1-c1ccc(F)c(F)c1 [Example 148, (S)-2-(3,4-Difluorophenyl)-3-(2-methylpyrrolidin-1-yl)quinoxaline-6-carboxylic acid] | < 10 |  |  |  |  |  |  |  |  | < 10
CC(=O)Nc1ccc(-c2nc3ccc(C(=O)O)cc3nc2N(C)C(C)C)cc1 [Example 149, 2-(4-Acetamidophenyl)-3-[methyl(propan-2-yl)amino]quinoxaline-6-carboxylic acid] | < 10 |  |  |  |  |  |  |  |  | < 10
